“Also recorded” adds a separate entry of the source.
What was measured:
[1] = test system: MYCN MR signature; assay: RNASeq with VIPER analysis of the MYCN MR signature; type: cell-based, human; conditions: SK-N-Be2 cells
Procedure: To uncover changes in gene expression that underpin responses to pomiferin and isopomiferin, RNASeq analysis of SK-N-Be2 cells was performed following treatment with the two active prenylated isoflavonoids as well as a null analog that served as a negative control. SK-N-Be2 cells were treated with either 3 μM or 10 μM of isopomiferin or pomiferin and sampled after 3 h and 6 h. […] By comparing the active to the null analogs, downstream analyses can focus on changes in gene expression associated with the MYCN signature.
Intriguingly, only six MRs were suppressed by pomiferin and isopomiferin, while being unaffected by the null analog dimethyl pomiferin (FIG. 20B).

[2] = test system: mutant isoform of CK2a1; assay: Cell viability after expression of mutant CK2a1 isoform; conditions: versus GFP-expressing plasmid
[3] = test system: PLK1, LIN28B, and BMI1 transcripts; assay: qPCR of downstream targets of MycN (PLK1, LIN28B, BMI1) in SK-N-Be2 cells; type: cell-based, human; conditions: 10 μM, up to 24 h
Procedure: (§1) Reverse transcription quantitative polymerase chain reaction (RT-qPCR) was used to quantify transcript abundance of genes of interest. Total RNA was isolated from cells using the Qiaquick RNeasy isolation kit following manufacturer's instruction (QIAGEN). RNA quality and abundance was measured using a nanodrop spectrophotometer. A total of 2 μg RNA was used as a template for reverse transcription reactions. cDNA synthesis was performed using TaqMan reverse transcriptase following the manufacturer's instructions, using both oligod(T) and random hexamers as primers for RT reactions. RNAse treatment of cDNA removed any residual RNA in cDNA samples. cDNA samples were diluted 10-fold into nuclease-free dH2O, and used as the template for quantitative PCR reactions were performed in a Viia7 […] thermocycler using SYBR green and gene-specific primers (Table 1). qPCR reactions were performed using the Viia7 Real-Time PCR system (Applied Biosystems), and relative transcript abundance evaluated using the deltaCT method, using the GAPDH housekeeping gene as normalization control.

[4] = test system: CCL5 transcript; assay: qPCR of CCL5 transcript in A549 cells; type: cell-based; conditions: 48 hr
Procedure: as §1
In lung cancer, cMyc overexpression suppresses CCL5, an antigen that enables the immune system to detect cancer cells (Topper et al. 2017). By suppressing CCL5, cMyc enables tumors to evade immune surveillance (Topper et al. 2017). […]

[5] = test system: cMyc; assay: Western blot of cMyc in A549 cells; type: cell-based; conditions: A549 cells, 5, 10, or 15 μM, 24 hrs
Description: (§2) Membranes were blocked using Odyssey Blocking Buffer (LI-COR) for 1 hr at room temperature. […] Primary antibodies used in these studies include: MycN (CST; 1:500 dilution), Actin (SCBT; 1:2000 dil.), cMYC (CST; 1:500 dil.), pAKT (S473; CST; 1:500 dil.), AKT (CST; 1:2000), pP70 (T389; CST; 1:1000) P70 (CST; 1:1000).
There are some shared upstream regulatory pathways that govern both MycN and cMyc expression, including mTOR signaling cascade (Guertin and Sabatini 2007; Hay and Sonenberg 2004). We hypothesized that isopomiferin could disrupt the expression of cMyc as well. We identified a cMyc-expressing lung cancer line, A549, and treated cells with 5, 10, or 15 μM isopomiferin for 24 hrs (FIG. 3D).

[6] = test system: MycN^AMP regulatory module (Master Regulators, TCM); assay: PLATE-Seq with VIPER analysis: reversion of the MycN^AMP master regulator module; type: cell-based, human; conditions: SK-N-Be2 cells, IC20, 24 hrs
Description: Reads were mapped against the human reference genome version Grch38 using the STAR aligner, and used the variance stabilizing transformation from the DESeq2 package for R to normalize each plate. Next, we corrected for batch effect due to having compounds replicates on separate plates. We used the function combat from the sva package for R to compute the batch-corrected normalized gene expression, and fitted a linear model for each compound against the set of DMSO controls on each plate (6 wells per plate per DMSO-treated cells). We used the limma package for R to fit the linear model and to compute p-values and moderated t-statistics for each gene. For each compound, we used a vector of these statistics to generate a gene expression profile of z-scores representing the compound effect as differential between post- and pre-treatment.
Each compound gene expression profile was analyzed using the VIPER algorithm (Alvarez et al. 2016) with TARGET and NRC NBL interactomes, reverse-engineered as described in (Rajbhandari et al. 2018), resulting in two protein activity profiles for each compound that were integrated using Stouffer's z-score method.

[7] = test system: pS6K; assay: S6K phosphorylation western blot in A549 cells; type: cell-based; conditions: 24 hrs
Description: as §2
We then tested whether mTORC2 complex was disrupted by isopomiferin treatment. […] to enable translation. We tested whether phosphorylation of S6K was inhibited by isopomiferin by treating SK-N-Be2 cells to 10 μM and 20 μM isopomiferin for 24 hours and blotting for pS6K, using total S6K protein as a loading control. […] We then tested whether this was consistent across cell lines by performing a similar experiment in an NSCLC cell line, A549.

[8] = test system: MYCN transcript; assay: RT-qPCR of MYCN transcript in SK-N-Be2 cells; type: cell-based, human; conditions: 15 μM, sampled 0, 3, 6, 9, 24 hrs
Procedure: as §1

Row | SMILES | effect on the MYCN MR signature (VIPER of RNASeq) [1] | resistance conferred by mutant CK2 isoform [2] | transcript accumulation of PLK1, LIN28B, and BMI1 [3] | increase of CCL5 transcript [4] [fold] | cMyc protein abundance [5] | reversion of the MR regulatory module / TCM (VIPER of PLATE-Seq) [6] | pS6K [7] | MYCN transcript abundance (RT-qPCR) [8]
1 | CC(C)=CCc1c2c(c3occ(-c4ccc(O)c(O)c4)c(=O)c3c1O)C=CC(C)(C)O2 [pomiferin] | had the strongest effect on the MYCN MR signature | modest resistance | inhibited the transcript accumulation of three downstream targets of MycN | – | – | – | – | –
2 | CC1(C)C=Cc2c(c3c(c4c(=O)c(-c5ccc(O)c(O)c5)coc24)OC(C)(C)CC3)O1 [isopomiferin] | – | – | – | 15 | suppressed cMyc protein abundance in A549 in a dose dependent manner | the top compound of the 90 tested; also recorded: had the strongest effect on the TCM | suppressed pS6K in A549 cells | transcript abundance decreased in a time-dependent manner
